Experimental data taken from patent publication US8937089B2, “Synergistic mixtures of anthranilamide invertebrate pest control agents” (priority 2004, dated 2015).
Read-outs that look alike come from different tables or passages of the source.

Legend:
Format in all cases: in vivo
[1] = tested on: silverleaf whitefly (Bemisia argentifolii); test: Test G: systemic control of silverleaf whitefly, drip irrigation of tomato plant in greenhouse
Experimental: For evaluating systemic control of silverleaf whitefly (Bemisia argentifolii), each test unit consisted of a 10-inch (25.4 cm) pot with sand, and a tomato plant (var. Tiny Tim) at the 5 to 10 true leaf stage. Oxamyl was in the liquid formulation as Vydate® L and compound 1 was in a wettable powder formulation with 50% active ingredient. Test compounds in approximately 200 mL of water per pot were applied by drip irrigation in the greenhouse. Whitefly activity was evaluated on a naturally occurring population by removing 5 old leaves with clearly visible nymphs. When there were no leaves with clearly visible nymphs, 5 old leaves were removed at random. Leaves were evaluated for dead and live nymphs. For all tests, analysis was conducted by using Fisher's LSD test for means separation, at p=0.05 (see. K. A. Gomez and A. A. Gomez, “Statistical Procedures for Agricultural Research”, 2nd edition, John Wiley & Sons, New York, 680 pp). Mean comparisons were made within each evaluation date only.

[2] = tested on: beet armyworm (Spodoptera exigua); test: Test H: systemic control of beet armyworm, drip irrigation of tomato plant, leaf discs, % mortality and % feeding; conditions: mg ai/pot: Oxamyl 100, Compound 1 20, Oxamyl + Compound 1 100 + 20
Experimental: For evaluating systemic control of beet armyworm (Spodoptera exigua), each test unit consisted of a 10-inch (25.4 cm) pot filled with sand and containing a tomato plant (var. Tiny Tim) at the 5 to 10 true leaf stage. Oxamyl was in the liquid formulation as Vydate® L and compound 1 was in a wettable powder formulation with 50% active ingredient. Test compounds in approximately 200 mL of water per pot were applied by drip irrigation in the greenhouse. The plants were sampled at indicated date by cutting discs of the leaf material and placing each disc on a layer of agar gel in a 16-well, 1.5 oz. cup tray (B-150-S 0.028 Natural, Clear Pack Co., Franklin Park, Ill. 60131). One beet armyworm larva was added to each cell and the cells were covered. Trays were held in the growth chamber at 25° C., 16-hour light:8-hour dark, 60% relative humidity for 4 days. The percentage of mortality (abbreviated as % Morta.) and percentage of feeding (abbreviated as % feed), were visually assessed; the results are listed in Table 9. For all tests, analysis was conducted by using the LSD test. Mean comparisons were made within each evaluation date only.

[3] = tested on: cabbage looper (Trichoplusia ni); test: Test J: foliar control of cabbage looper, sprayed cabbage leaves, % mortality and % feeding; conditions: for mortality at […]: Trichoplusia ni, foliar, read-out: % mortality (observed)
Experimental: For evaluating control of beet armyworm (Spodoptera exigua), methomyl was in the liquid formulation as Lannate® LV (29% of active ingredient). Compound 1 was in a water dispersible granules (WDG) formulation with 35% active ingredient. The test compounds were dissolved in water. Enough water was added to make 100 ppm of active ingredient for each compound. Serial dilutions were made to obtain the appropriate concentrations. To obtain the desired mixture concentrations of each compound, twice the desired concentration of each of the two mixture partner compounds were mixed together in equal volumes.
(§1) The diluted solutions of the test compounds were sprayed to run-off on three-week-old tomato plants. The plants were placed on a rotating turntable sprayer (10 rpm). Test solutions were applied using a flat fan air-assisted nozzle (Spraying Systems 122440) at 10 psi (69 kPa). After each treated plant had dried, leaves were excised from the treated plant. The leaves were cut into pieces, which were placed singly into 5.5 cm-by-3.5 cm cells of a sixteen-cell plastic tray. Each cell contained a 2.5-cm square of moistened chromatography paper to prevent desiccation. One insect was placed in each cell. There two trays per treatment. Trays were held in the growth chamber at 25° C., 16-hour light:8-hour dark, 60% relative humidity for 4 days.
(§2) For evaluating foliar control of cabbage looper (Trichoplusia ni), cabbage (var. Stonehead) plants were grown in Metromix potting soil in 10-cm pots in aluminum trays to test size (28 days, 3-4 full leaves). Test compounds were formulated and sprayed on test plants as described for Test I. After drying for 2 hours, the treated leaves were excised and infested with one cabbage looper per cell and covered. The test units were placed on trays and put in a growth chamber at 25° C. and 60% relative humidity for 4 days.

[4] = tested on: diamondback moth (Plutella xylostella); test: whole plant or invertebrate
Experimental: The test compounds were dissolved in water. […] Serial dilutions were made to obtain the appropriate concentrations. To obtain the desired mixture concentrations of each compound, twice the desired concentration of each of the two mixture partner compounds were mixed together in equal volumes.
as §1, with “After each treated plant had dried, leaves were excised from the treated plant.” left out
as §2, with “evaluating” for “evaluating foliar”, “diamondback moth (Plutella xylostella),” for “cabbage looper (Trichoplusia ni),”, “leaves) the plants were sprayed to the point of runoff using the turntable sprayer as described in Test I.” for “leaves).”

[5] = Day 6, mg ai/pot: Oxamyl 100, Compound 1 20, Oxamyl + Compound 1 100 + 20
[6] = Day 13, mg ai/pot: Oxamyl 100, Compound 1 20, Oxamyl + Compound 1 100 + 20
[7] = Day 20, mg ai/pot: Oxamyl 100, Compound 1 20, Oxamyl + Compound 1 100 + 20
[8] = Day 13 - old growth (first of two heads so printed, c4)
[9] = Day 13 - old growth (first of two heads so printed, c5)
[10] = Day 13 - old growth (second of two heads so printed, c6)
[11] = Day 13 - old growth (second of two heads so printed, c7)

Row | Compound | % Mortality [1, 5] | Nymphs number [1, 5] | % Mortality [1, 6] | Nymphs number [1, 6] | % Mortality [1, 7] | Nymphs number [1, 7] | % Morta. ([2]; Day 6 new & old) | % feed ([2]; Day 6 new & old) | % Morta. [2, 8] | % feed [2, 9] | % Morta. [2, 10] | % feed [2, 11] | % Morta. ([2]; Day 20 - new growth) | % feed ([2]; Day 20 - new growth) | % Morta. ([2]; Day 20 - old growth) | % feed ([2]; Day 20 - old growth) | also measured
1 | CNC(=O)c1cc(Cl)cc(C)c1NC(=O)c1cc(Br)nn1-c1ncccc1Cl [Compound 1, 3-bromo-N-[4-chloro-2-methyl-6-[(methylamino)carbonyl]phenyl]-1-(3-chloro-2-pyridinyl)-1H-pyrazole-5-carboxamide] | 44% | 316 | 99% | 194 | 100% | 300 | 99% | 0% | 100% | 0% | 97% | 0% | 100% | 0% | 100% | 0% | mortality at […] ([3]; Compound 1 0.032 ppm): 9%; mortality at […] ([3]; Compound 1 0.057 ppm): 22%; % feeding ([4]; Compound 1 0.007 ppm): 10.0%; % feeding ([4]; Compound 1 0.030 ppm): 0%; mortality at 0.007 ppm ([4]; Plutella xylostella, in Brassica oleracea, Compound 1 0.007 ppm, read-out: % mortality (observed)): 13%; mortality at […] ([4]; Plutella xylostella, in Brassica oleracea, Compound 1 0.013 ppm, read-out: % mortality (observed)): 34%; mortality at 0.03 ppm ([4]; Plutella xylostella, in Brassica oleracea, Compound 1 0.030 ppm, read-out: % mortality (observed)): 78%; mortality at 0.01 ppm ([4]; Plutella xylostella, in Brassica oleracea, rate 0.01 ppm, read-out: % mortality (obs)): 87%; mortality at 0.02 ppm ([4]; Plutella xylostella, in Brassica oleracea, rate 0.02 ppm, read-out: % mortality (obs)): 77%; mortality at 0.04 ppm ([4]; Plutella xylostella, in Brassica oleracea, rate 0.04 ppm, read-out: % mortality (obs)): 93%
2 | COC(=O)N(C(=O)N1CO[C@@]2(C(=O)OC)Cc3cc(Cl)ccc3C2=N1)c1ccc(OC(F)(F)F)cc1 [Indoxacarb] | – | – | – | – | – | – | – | – | – | – | – | – | – | – | – | – | % feeding ([3]; Indoxacarb 0.146 ppm): 68%; % mortality (observed) ([3]; Indoxacarb 0.146 ppm): 31%; % feeding ([4]; Indoxacarb 0.147 ppm): 13.8%; % mortality (observed) ([4]; Indoxacarb 0.147 ppm): 33%; % feeding ([4]; Indoxacarb 0.226 ppm): 3.5%; % mortality (observed) ([4]; Indoxacarb 0.226 ppm): 25%; % feeding ([4]; Indoxacarb 0.340 ppm): 0.5%; % mortality (observed) ([4]; Indoxacarb 0.340 ppm): 47%; % feeding ([4]; Indoxacarb 1 ppm): 0.1%; % mortality (observed) ([4]; Indoxacarb 1 ppm): 50%
3 | CNC(=O)O/N=C(\SC)C(=O)N(C)C [Oxamyl] | 6% | 380 | 34% | 506 | 28% | 404 | 26% | 49% | 35% | 43% | 40% | 40% | 25% | 92% | 31% | 65% | –
